{"source": "patent EP0230922A2", "about": "“Use of peptides in the preparation of agents for the treatment of coronary diseases or organic brain syndrome” (BOEHRINGER INGELHEIM KG, priority 1986, dated 1987)", "key": {"Mäuse (ChbI: NMRI)": {"test_system": "Mäuse (ChbI: NMRI)", "assay": "Hypoxia tolerance: survival of mice in a closed chamber (96,5 % N2, 3,5 % O2)", "assay_type": "in vivo", "settings": "given 24 h, 16 h and 30 min before test, 10 mice per group", "source_text": "1. HYPOXIE-TOLERANZ, d.h. bei der Prüfung der überlebensfähigkeit von Tieren in einer geschlossenen Kammer.\nEine aus Plexiglas hergestellte, durchsichtige, mit einem Deckel verschließbare Kammer (28 cm x 40 cm x 20 cm; Gesamtvolumen 22,4 1) ist in 2 Hälften geteilt, in die je 10 männliche oder weibliche Mäuse (ChbI: NMRI; 20-25 g Körpergewicht) gesetzt werden. Die Kammer wird mit einem Gasgemisch, bestehend aus 96,5 % N2 und 3,5 % 02 durchströmt; das Strömungsvolumen beträgt 12 1/min.\nEine der beiden Gruppen erhält Prüfsubstanzen, die andere das Vehikel (0,5 % Tylose), die 24 h, 16 h und 30 min vor dem Test oral appliziert werden. Etwa 6-7 min nach Beginn der Durchströmung der Kammer sterben die ersten Tiere. Das Experiment wird beendet, wenn in der Kontrollgruppe nur noch 2-3 Tiere Zeichen von Leben zeigen.\nOhne die Tiere zu berühren, wird 15 min gewartet und dann die Zahl der überlebenden Tiere in den beiden Hälften der Kammern endgültig festgestellt. Die statistische Signifikanz der Differenz der überlebenden Tiere in beiden Gruppen kann mit dem \"Exakten Test von Fisher für 2 x 2 Feldertafeln\" festgestellt werden."}, "Mäuse (ChbI:NMRI)": {"test_system": "Mäuse (ChbI:NMRI)", "assay": "Scopolamine test: passive avoidance in mice", "assay_type": "in vivo", "settings": "per os, scopolamine hydrobromide 0,6 mg/kg s.c., test 1 h after dosing", "source_text": "Durch den cholinerg-muskarinen Antagonisten Scopolamin wird bei Mensch und Tier eine vorübergehende Störung des übergangs von Inhalten des Kurzzeitgedächtnisses in das Langzeitgedächtnis hervorgerufen. Die auch klinisch bei gesunden Probanden durch Scopolamin auslösbaren, mnestischen Störungen sind in ihrer Ausprägung den psychopathologischen Veränderungen bei Patienten mit organischem Hirnsyndrom ähnlich (Drachman & Leavitt, 1974).\nDer Scopolamin-Test wird an Gruppen von jeweils 10 männlichen, nicht nüchternen, naiven Mäusen (ChbI:NMRI: Körpergewicht 35 g) mit Hilfe einer passiven Vermeidereaktion durchgeführt. Das Testgerät besteht aus einer Skinner Box (30 cm x 26 cm x 29 cm) mit einem elektrifizierbaren Gitterboden und einer Plastikplattform (5 cm x 5 cm) an einer Seitenwand. Die Tiere werden einzeln in die Skinner Box gesetzt. Nach einer Orientierungsperiode von 30 sec werden kurze, unterbrochene Stromstöße von ca. 0,8 mA so oft an den Gitterboden der Box gelegt, bis das Tier gelernt hat, daß das Aufsuchen und Verweilen auf der Plastikplattform vor dem Stromstoß Sicherheit gewährt. Tiere, welche dies innerhalb von 120 sec nicht lernen, werden nicht weiter verwendet. Die anderen Mäuse werden unmittelbar nach Erlernen der passiven Vermeidereaktion in drei Gruppen (10 Tiere pro Gruppe) eingeteilt. Eine Gruppe erhält Scopolaminhydrobromid (0,6 mg/kg s.c.) und oral Vehikel (0,5 % Tylose); die zweite Gruppe Scopolaminhydrobromid sowie die zu testende Substanz per os in 0,5 % Tylose und die dritte Gruppe lediglich 0,5 % Tylose p.o.. Eine Stunde nach Applikation wird jedes Tier einzeln auf die Plattform gesetzt, um das Erinnerungsvermögen an die erlernte Vermeidereaktion zu prüfen. Das Kriterium besteht in der Bestimmung, ob die Maus während mindestens 60 sec auf der Plattform verbleibt (Ja-Antwort) oder nicht (Nein-Antwort).\nEtwa 75 % der Tiere, welche ausschließlich mit 0,5 % Tylose behandelt wurden, verbleiben bei der abschließenden Prüfung länger als 60 sec auf der Plattform: ein Ergebnis, welches als Ausdruck des guten Erinnerungsvermögens an die erlernte Erfahrung gedeutet werden kann. Nach Gabe von Scopolamin und Tylose verbleiben durchschnittlich etwa 25 % der Tiere auf der Plattform; dies zeigt die erhebliche Beeinträchtigung des Erinnerungsvermögens nach Gabe von Scopolamin."}}, "note": "Several values for one entry are separate records, joined by “and”; a condition that tells them apart may be missing. Identical values can stand only once.", "data": [{"smiles": "C[C@H](NC(=O)[C@H](Cc1ccccc1)SCOC(=O)C(C)(C)C)C(=O)N1CCC[C@H]1C(=O)OCOC(=O)C(C)(C)C", "note": "[Verbindung 1, N-[N-(3-Phenyl-2-S-pivaloyloxymethylmercapto-propanoyl)-S-alanyl]-S-prolin-pivaloyloxymethylester]", "values": [{"measurement": "Behandelte Tiere Überlebende %", "setting": "Mäuse (ChbI: NMRI); 10 mg/kg p.o.", "result": 100, "unit": "%"}, {"measurement": "Behandelte Tiere Überlebende %", "setting": "Mäuse (ChbI: NMRI); 30 mg/kg p.o.", "result": 80, "unit": "%"}, {"measurement": "%der Tiere bei welcher die Scopol-amin-Wirkung anta-gonisiert wurde", "setting": "Mäuse (ChbI:NMRI); Dosis 5 (unit not given)", "result": "80% and 40%"}, {"measurement": "%der Tiere bei welcher die Scopol-amin-Wirkung anta-gonisiert wurde", "setting": "Mäuse (ChbI:NMRI); Dosis 10 (unit not given)", "result": "40% and 30%"}, {"measurement": "%der Tiere bei welcher die Scopol-amin-Wirkung anta-gonisiert wurde", "setting": "Mäuse (ChbI:NMRI); Dosis 20 (unit not given)", "result": 40, "unit": "%"}, {"measurement": "%der Tiere bei welcher die Scopol-amin-Wirkung anta-gonisiert wurde", "setting": "Mäuse (ChbI:NMRI); Dosis 30 (unit not given)", "result": 40, "unit": "%"}]}, {"smiles": "C[C@H](NC(=O)[C@H](Cc1ccccc1)SC(=O)c1ccccc1)C(=O)N1CCC[C@H]1C(=O)O", "note": "[Verbindung 2, N-[N-(3-Phenyl-2-S-benzoylmercaptopropanoyl)-S-alanyl]-S-prolin]", "values": [{"measurement": "Behandelte Tiere Überlebende %", "setting": "Mäuse (ChbI: NMRI); 30 mg/kg p.o.", "result": 60, "unit": "%"}, {"measurement": "%der Tiere bei welcher die Scopol-amin-Wirkung anta-gonisiert wurde", "setting": "Mäuse (ChbI:NMRI); Dosis 1 (unit not given)", "result": 30, "unit": "%"}, {"measurement": "%der Tiere bei welcher die Scopol-amin-Wirkung anta-gonisiert wurde", "setting": "Mäuse (ChbI:NMRI); Dosis 5 (unit not given)", "result": 50, "unit": "%"}, {"measurement": "%der Tiere bei welcher die Scopol-amin-Wirkung anta-gonisiert wurde", "setting": "Mäuse (ChbI:NMRI); Dosis 10 (unit not given)", "result": "50% and 30%"}]}, {"smiles": "CC(=O)S[C@@H](Cc1ccccc1)C(=O)N[C@@H](C)C(=O)N1CCC[C@H]1C(=O)OCOC(=O)C(C)(C)C", "note": "[Verbindung 3, N-[N-(3-Phenyl-2-S-acetylmercaptopropanoyl)-S-alanyl]-S-prolin-pivaloyloxymethylester]", "values": [{"measurement": "Behandelte Tiere Überlebende %", "setting": "Mäuse (ChbI: NMRI); 10 mg/kg p.o.", "result": 50, "unit": "%"}, {"measurement": "Behandelte Tiere Überlebende %", "setting": "Mäuse (ChbI: NMRI); 30 mg/kg p.o.", "result": 30, "unit": "%"}, {"measurement": "Behandelte Tiere Überlebende %", "setting": "Mäuse (ChbI: NMRI); 50 mg/kg p.o.", "result": "80% and 100%"}, {"measurement": "%der Tiere bei welcher die Scopol-amin-Wirkung anta-gonisiert wurde", "setting": "Mäuse (ChbI:NMRI); Dosis 0,5 (unit not given)", "result": 40, "unit": "%"}, {"measurement": "%der Tiere bei welcher die Scopol-amin-Wirkung anta-gonisiert wurde", "setting": "Mäuse (ChbI:NMRI); Dosis 1 (unit not given)", "result": 60, "unit": "%"}, {"measurement": "%der Tiere bei welcher die Scopol-amin-Wirkung anta-gonisiert wurde", "setting": "Mäuse (ChbI:NMRI); Dosis 5 (unit not given)", "result": 40, "unit": "%"}, {"measurement": "%der Tiere bei welcher die Scopol-amin-Wirkung anta-gonisiert wurde", "setting": "Mäuse (ChbI:NMRI); Dosis 10 (unit not given)", "result": "40% and 80%"}]}, {"smiles": "C[C@H](NC(=O)[C@@H](S)Cc1ccccc1)C(=O)N1CCC[C@H]1C(=O)OCOC(=O)C(C)(C)C", "note": "[Verbindung 4, N-[N-(3-Phenyl-2-S-mercaptopropanoyl)-S-alanyl]-S-prolin-pivaloyloxymethylester]", "values": [{"measurement": "Behandelte Tiere Überlebende %", "setting": "Mäuse (ChbI: NMRI); 10 mg/kg p.o.", "result": 90, "unit": "%"}, {"measurement": "Behandelte Tiere Überlebende %", "setting": "Mäuse (ChbI: NMRI); 30 mg/kg p.o.", "result": 30, "unit": "%"}, {"measurement": "Behandelte Tiere Überlebende %", "setting": "Mäuse (ChbI: NMRI); 50 mg/kg p.o.", "result": "70% and 100%"}]}]}
